Measurements published in patent EP0367189A2, “Sugar phosphates and sulfonates of epipodophyllotoxin glucosides” (Bristol-Myers Squibb Company, priority 1988, dated 1990).
Values after ≈ are worked out from the molar mass of the structure shown.

Tests used:
[1] = test system: P388 leukemia; experiment: Antitumor activity against murine transplantable P388 leukemia (survival); assay type: in vivo, CDF₁ mice; conditions: maximum % T/C only, at the dose giving the maximum effect (dose column of Table I); single intraperitoneal dose on day 1; observed 45 days; 10⁶ P388 cells ip; % T/C of 125 or greater = significant
Description: Representative compounds of the present invention were evalnated for anti tumor activity against murine transplantable P388 leukemia. Five-week old female CDF₁ mice were inoculated intraperitoneally with 0.4 ml of diluted ascitic fluid containing 10⁶ lymphocytic leukemia P388 cells. […] The percent increase of median survival time (MST) of treated animals over that of untreated control animals was determined and reported as % T/C. Compounds showing % T/C values of 125 or greater are considered to have significant antitumor activity. Table I presents the results of the in vivo evaluation; only the maximum % T/C and the dose giving the maximum effects are reported.

[2] = test system: B16 melanoma cells; experiment: In vitro cytotoxicity against B16 melanoma cells (neutral red staining); assay type: cell-based; conditions: 72 hours at 37°C, colorimetric at 540 nm, IC₅₀ higher than 100 µg/ml = lack of cytotoxic activity
Description: Cytotoxicity of compounds of the present invention was studied using B16 melanoma cells. B16 melanoma cells were grown to the logarithmic phase in the enriched Eagle minimum essential medium supplemented with fetal calf serum (10%) and kanamycin (60 mcg/ml). The tumor cells were harvested and implanted into wells of the 96-well microtiter plate with test materials at the inoculum size of 3.0 x 10⁴ cells/ml. They were incubated at 37°C in humidified atmosphere of 5% CO₂ and 95% air for 72 hours. The cytotoxic activity against the above cell line was determined colorimetrically at 540 nm after staining viable cells with neutral red and is reported in terms of the concentration that inhibits 50% of cell growth (IC₅₀). IC₅₀ values of higher than 100 µg/ml are generally considered as indicating lack of cytotoxic activity.

[3] = Seligman et al, Cancer Chemotherapy Reports Part I, 1975; cited from earlier work
[4] = target: T1, prostatic acid phosphatase (Homo sapiens, UniProt P15309); conditions: Seligman et al, Cancer Chemotherapy Reports Part I, 1975; cited from earlier work
T1 sequence (P15309 33-386): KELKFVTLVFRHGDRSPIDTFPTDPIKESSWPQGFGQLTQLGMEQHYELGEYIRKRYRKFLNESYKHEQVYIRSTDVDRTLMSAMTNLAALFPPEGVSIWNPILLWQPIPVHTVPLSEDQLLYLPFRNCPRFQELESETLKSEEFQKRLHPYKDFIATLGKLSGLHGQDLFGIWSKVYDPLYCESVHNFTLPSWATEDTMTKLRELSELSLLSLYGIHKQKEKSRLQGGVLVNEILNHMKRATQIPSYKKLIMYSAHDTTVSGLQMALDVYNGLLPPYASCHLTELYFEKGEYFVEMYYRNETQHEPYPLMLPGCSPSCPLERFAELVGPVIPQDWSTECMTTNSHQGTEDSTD

## disodium etoposide 2˝ -phosphate [Compound XII]
[1]
  %T/C of MST: 120%
[2]
  IC₅₀: 20 µg/mL

## podophyllotoxin phosphate disodium salt
[3]
  toxicity over the parent podophyllotoxin: did not show reduced toxicity
[4]
  hydrolysis by prostatic acid phosphatase: not hydrolyzed

## etoposide 3˝-diphenyl phosphate [XXVI]
[1]
  %T/C of MST: 130%
[2]
  IC₅₀: 8.0 µg/mL

## etoposide 3˝-mesylate [Compound XXIII]
[1]
  %T/C of MST: 175%
[2]
  IC₅₀: 0.32 µg/mL

## etoposide 2˝-tosylate [Compound XVIII]
[1]
  %T/C of MST: 115%
[2]
  IC₅₀: 5.4 µg/mL

## sodium bis(etoposide-3˝-)phosphate [Compound XIII]
[1]
  %T/C of MST: 125%
[2]
  IC₅₀: 37 µg/mL

## etoposide 2˝,3˝-ditosylate [Compound XIX]
[1]
  %T/C of MST: 100%
[2]
  IC₅₀: 30 µg/mL

## etoposide 3˝-tosylate [Compound XVII]
[1]
  %T/C of MST: 195%
[2]
  IC₅₀: 0.07 µg/mL

## disodium etoposide 3˝-phosphate [Compound XI]
[1]
  %T/C of MST: 185%
[2]
  IC₅₀: 2.2 µg/mL

## etoposide 2˝-mesylate [Compound XXIV]
[1]
  %T/C of MST: 130%
[2]
  IC₅₀: 29 µg/mL

## COc1cc([C@@H]2c3cc4c(cc3[C@@H](O[C@@H]3O[C@@H]5CO[C@@H](C)O[C@H]5[C@H](O)[C@H]3O)[C@H]3COC(=O)[C@H]23)OCO4)cc(OC)c1O [Etoposide, etoposide, reference compound]
[1]
  %T/C of MST: 250%
[2]; Mus musculus
  IC50: 0.21 µg/mL (≈ 0.357 µM)
